Assay results from US20250275996A1, “COMBINATION OF TUNICAMYCIN-TYPE ANTIBIOTIC WITH POLYMYXINS AND USES THEREOF” (priority 2024, published 2025).

Legend:
[1] = tested on: S. marcescens B-2544; assay: MIC by resazurin staining assay, S. marcescens; type: cell-based, Serratia marcescens; conditions: 24 hours at 37° C.
Experimental: (§1) The […] growth inhibition (MIC) using natural tunicamycin (TUN), a tunicamycin derivative TunR2, polymyxin B, or a combination of polymyxin B with TUN or TunR2 were tested. Testing was performed using the resazurin staining assay. The resazurin staining assay uses the reduction by bacterial viable cells of the blue, non-fluorescent, and non-toxic dye, resazurin, to pink, fluorescent resorufin to assess the viability of biofilms. The Minimal Inhibitory Concentration (MIC) values where determined using standard microbiological methods, for example by spotting dilutions of the compounds or combinations on solid agar media plates after inoculating with bacteria, yeast, or buffer alone, followed by incubating for a defined period. This method results in clearing zones on agar plates.
(§2) The activity of TUN or TunR2 in the presence or absence of polymyxin B on Serratia marcescens (a honey bee pathogen) or E. coli was tested. The MIC was determined using the resazurin staining assay described in Example 1.
Plates inoculated with S. marcescens B-2544, E. coli, or DMSO alone (Control) in TYG were spotted with a dilution gradient of TUN or TunR2 in the presence or absence of a sub-MIC concentration of polymyxin B (half the MIC concentration), and incubated for 24 hours at 37° C. […]

[2] = tested on: E. coli MG1655; assay: MIC by resazurin staining assay, E. coli; type: cell-based, Escherichia coli
Experimental: as §1
(§3) To determine the MIC for polymyxin B alone, plates inoculated with E. coli MG1655 (Gram-negative bacterium), P. aeruginosa ATCC 2783 (Gram-negative bacterium), B. subtilis MW10 (Gram-positive bacterium), S. cerevisiae (eukaryote) in TYG, or DMSO alone (Control) were spotted with a dilution gradient of polymyxin B, and incubated for 24 hours at 30° C.
(§4) To determine the MIC for TUN or TunR2 in the presence or absence of polymyxin B, plates inoculated with E. coli MG1655, or P. aeruginosa ATCC 2783 in TYG, were spotted with a dilution gradient of Tun or TunR2 in the presence or absence of polymyxin B at sub-MIC concentration (MIC/2), or DMSO alone (Control). Images of two plates inoculated with E. coli are shown in FIG. 4A and FIG. 4B, and images of two plates inoculated with P. aeruginosa are shown in FIG. 4C and FIG. 4D.
as §2
Plates inoculated with S. marcescens B-2544, E. coli, or DMSO alone (Control) in TYG were spotted with a dilution gradient of TUN or TunR2 in the presence or absence of a sub-MIC concentration of polymyxin B (half the MIC concentration), and incubated for 24 hours at 37° C. An image of a plate inoculated with S. marcescens is shown in FIG. 7A, and an image of a plate inoculated with E. coli is shown in FIG. 7B. […] The results obtained for E. coli compare well with the MICs of other antibiotics as taught by m. de Boer et al. (2015, “Minimum Inhibitory Concentrations of Selected Antimicrobials Against Escherichia Coli and Trueperella pyogenes of Bovine Uterine Origin,” J Dairy Sci. 98:4427-4438).

[3] = tested on: P. aeruginosa ATCC 2783; assay: MIC by resazurin staining assay, P. aeruginosa; type: cell-based, Pseudomonas aeruginosa
Experimental: as §1, §3, §4
The activity of Cefquinome alone, or in the presence of TunR2, polymyxin B, or polymyxin B and TunR2 on P. aeruginosa was tested. The MIC was determined using the resazurin staining assay described in Example 1.
Plates inoculated with P. aeruginosa, or DMSO alone (Control) in TYG were spotted with a dilution gradient of Cefquinome in the presence of TunR2, polymyxin B, or polymyxin B and TunR2, and incubated for 24 hours at 37° C.

[4] = tested on: S. cerevisiae; assay: MIC by resazurin staining assay, yeast; type: cell-based, Saccharomyces cerevisiae; conditions: 24 hours at 30° C., TYG
Experimental: as §1, §3

[5] = tested on: B. subtilis MW10; assay: MIC by resazurin staining assay, B. subtilis; type: cell-based, Bacillus subtilis; conditions: 24 hours at 30° C., TYG
Experimental: as §1, §3

[6] = alone, dilution series, 24 hours at 37° C.

In the case of tunicamycin, the “MIC in the presence of polymyxin B” value ([1]; S. marcescens, sub-MIC polymyxin B (half the MIC)) is reported as 5.0 µg/mL, the “effect on S. marcescens when used alone” value ([1]; absence of polymyxin B, any of the concentrations tested) is reported as “neither TUN nor TunR2 had a detectable effect” and the “MIC in the presence of polymyxin B” value ([2]; Example 2, E. coli, sub-MIC polymyxin B (half the MIC), 24 hours at 37° C.) is reported as 0.313 µg/mL. For the same compound, the “effect on E. coli when used alone” value ([2]; Example 2, absence of polymyxin B, 24 hours at 37° C., any of the concentrations tested) was “neither TUN nor TunR2 had a detectable effect”, the “effect on E. coli in the absence of polymyxin B” value [2, 6] was “neither Tun nor TunR2 had noticeable effect” and the “growth of E. coli in the presence of polymyxin B” value ([2]; with polymyxin B at MIC/2 (0.313 μg/mL), 24 hours at 37° C.) was “no E. coli or P. aeruginosa grew”. The “effect on P. aeruginosa in the absence of polymyxin B” value [3, 6] was “neither Tun nor TunR2 had noticeable effect” and the “growth of P. aeruginosa in the presence of polymyxin B” value ([3]; with polymyxin B at MIC/2 (2.5 μg/mL), 24 hours at 37° C.) was “no E. coli or P. aeruginosa grew”.
`CO/N=C(\C(=O)N[C@@H]1C(=O)N2C(C(=O)[O-])=C(C[n+]3cccc4c3CCCC4)CS[C@H]12)c1csc(N)n1` [Cefquinome] was tested, and the “MIC for Cefquinome (FIG. 8 legend)” value ([3]; P. aeruginosa in TYG, Cefquinome alone, 48 hours at 37° C.) was 10.0 µg/mL, the “MIC for Cefquinome alone” value ([3]; P. aeruginosa, 24 hours at 37° C.) was 10 µg/mL and the “MIC for Cefquinome in the presence of polymyxin B and TunR2” value ([3]; P. aeruginosa, with 2.5 μg/mL polymyxin B and 6.25 μg/mL TunR2, 24 hours at 37° C.) was 1.25 µg/mL. For the same compound, the “MIC for Cefquinome in the presence of polymyxin B” value ([3]; P. aeruginosa, with 2.5 μg/mL polymyxin B, 24 hours at 37° C.) was 5 µg/mL and the “MIC for Cefquinome in the presence of TunR2” value ([3]; P. aeruginosa, with 6.25 μg/mL TunR2, 24 hours at 37° C.) was 10 µg/mL.
In the case of polymyxin B, the MIC of polymyxin ([2]; E. coli, polymyxin alone) is reported as 0.625 µg/mL, the “effect on yeast (MIC for polymyxin B alone)” value [4] is reported as “not detectable” and the MIC of polymyxin ([3]; Pseudomonas, polymyxin alone) is reported as 5.0 µg/mL. The “MIC for polymyxin B alone” value [5] was 2.5 µg/mL.
